Measured values: ChEMBL document CHEMBL1201862, “PubChem BioAssay data set” (2004)
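48-hour exposure; five concentrations; linearly interpolated endpoints. At the GI50, growth is halved.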 Calls of active or inactive are those of the source. No stated cut-off is given here; in the data, active = GI50 up to about 1.1 µM and inactive = higher.

Legend:
Assay in all cases: DTP human tumour cell line panel, 48 h
SK-MEL-28 = test system: SK-MEL-28
DU-145 = test system: DU-145
SK-MEL-5 = test system: SK-MEL-5
786-0 = test system: 786-0
DLD-1 = test system: DLD-1
UACC-62 = test system: UACC-62
COLO 205 = test system: COLO 205
K562 = test system: K562
SF-539 = test system: SF-539
NCI-H23 = test system: NCI-H23
PC-3 = test system: PC-3
NCI-H460 = test system: NCI-H460
HOP-62 = test system: HOP-62
SK-OV-3 = test system: SK-OV-3
MDA-N = test system: MDA-N
A498 = test system: A498
ACHN = test system: ACHN
SF-295 = test system: SF-295
SK-MEL-2 = test system: SK-MEL-2
NCI-H522 = test system: NCI-H522

Compound	GI50 (SK-MEL-28)	GI50 (DU-145)	GI50 (SK-MEL-5)	GI50 (786-0)	GI50 (DLD-1)	GI50 (UACC-62)	GI50 (COLO 205)	GI50 (K562)	GI50 (SF-539)	GI50 (NCI-H23)	GI50 (PC-3)	GI50 (NCI-H460)	GI50 (HOP-62)	GI50 (SK-OV-3)	GI50 (MDA-N)	GI50 (A498)	GI50 (ACHN)	GI50 (SF-295)	GI50 (SK-MEL-2)	GI50 (NCI-H522)
COc1ccc(CC2C(=O)NC(C)C(=O)N(C)C3Cc4ccc(cc4)Oc4cc(ccc4O)CC(C(=O)NC(C)C(=O)NC(C)C(=O)N2C)N(C)C3=O)cc1 (stereo unspecified)	0.0175 µM (active)	< 0.0001 µM (active)	0.0175 µM (active)	< 0.0001 µM (active)	0.0469 µM (active)	0.0175 µM (active)	0.0175 µM (active)	0.0175 µM (active)	0.0175 µM (active)	0.0175 µM (active)	< 0.0001 µM (active)	0.0175 µM (active)	0.0179 µM (active)	0.0175 µM (active)	< 0.0001 µM (active)	0.0175 µM (active)	0.0738 µM (active)			
CC(C)OC(=O)c1cccnc1/C=N/O			> 100 µM (inactive)	> 100 µM (inactive)	> 100 µM (inactive)	> 100 µM (inactive)	> 100 µM (inactive)	> 100 µM (inactive)	> 100 µM (inactive)	> 100 µM (inactive)		84.1 µM (inactive)	> 100 µM (inactive)	> 100 µM (inactive)		> 100 µM (inactive)	> 100 µM (inactive)	88.5 µM (inactive)	> 100 µM (inactive)	> 100 µM (inactive)
Cc1[nH]c2ccccc2c1C1Cc2ccccc2N1C(=O)/C(Cl)=C/c1ccccc1 (stereo unspecified)	> 100 µM (inactive)		> 100 µM (inactive)	> 100 µM (inactive)	74.3 µM (inactive)	> 100 µM (inactive)	> 100 µM (inactive)	70.3 µM (inactive)	40.9 µM (inactive)	48.4 µM (inactive)		> 100 µM (inactive)	> 100 µM (inactive)	> 100 µM (inactive)		> 78.2 µM (inactive)	98.9 µM (inactive)	> 31 µM (inactive)	> 91 µM (inactive)	> 100 µM (inactive)
CCOC(=O)/C=C1\CCCC12OCCO2	> 100 µM (inactive)		> 100 µM (inactive)	> 100 µM (inactive)	89.3 µM (inactive)	> 100 µM (inactive)	> 100 µM (inactive)	> 100 µM (inactive)	> 100 µM (inactive)			> 100 µM (inactive)	> 100 µM (inactive)	> 100 µM (inactive)		> 100 µM (inactive)	> 100 µM (inactive)		> 100 µM (inactive)	2.87 µM (inactive)
CNC(C)(C)Cc1ccc(Cl)cc1	> 100 µM (inactive)		> 100 µM (inactive)	> 100 µM (inactive)	> 100 µM (inactive)	> 100 µM (inactive)	> 100 µM (inactive)	> 100 µM (inactive)	> 100 µM (inactive)	> 100 µM (inactive)		> 100 µM (inactive)	> 100 µM (inactive)	> 100 µM (inactive)		> 100 µM (inactive)	> 100 µM (inactive)	> 100 µM (inactive)	> 100 µM (inactive)	> 100 µM (inactive)
CC(C)C(C(=O)O)N(CC1(O)OCC(O)C(O)C1O)N=O (stereo unspecified)	> 100 µM (inactive)		> 100 µM (inactive)	> 100 µM (inactive)	> 100 µM (inactive)	> 100 µM (inactive)	> 100 µM (inactive)	> 100 µM (inactive)	> 100 µM (inactive)	> 100 µM (inactive)		> 100 µM (inactive)	> 100 µM (inactive)	> 100 µM (inactive)		> 100 µM (inactive)	> 100 µM (inactive)		> 100 µM (inactive)	> 100 µM (inactive)
O=C(CCc1ccccc1)NS(=O)(=O)c1ccccc1	> 100 µM (inactive)			> 100 µM (inactive)	> 100 µM (inactive)	> 100 µM (inactive)	> 100 µM (inactive)	> 100 µM (inactive)	> 100 µM (inactive)	> 100 µM (inactive)		> 100 µM (inactive)	> 100 µM (inactive)	> 100 µM (inactive)		> 100 µM (inactive)	> 100 µM (inactive)	> 100 µM (inactive)	> 100 µM (inactive)	> 100 µM (inactive)
CC(=O)OCCOCNC(=S)N/N=C/c1cc(Br)cs1	> 100 µM (inactive)		> 100 µM (inactive)	> 100 µM (inactive)	> 100 µM (inactive)	> 100 µM (inactive)	> 100 µM (inactive)	> 100 µM (inactive)	> 100 µM (inactive)	> 100 µM (inactive)		> 100 µM (inactive)	> 100 µM (inactive)	> 100 µM (inactive)		> 100 µM (inactive)	> 100 µM (inactive)	> 100 µM (inactive)	> 100 µM (inactive)	> 100 µM (inactive)
Cc1cc(N(CCC#N)S(=O)(=O)c2ccccc2)ccc1C=O	> 100 µM (inactive)		> 100 µM (inactive)	> 100 µM (inactive)	> 100 µM (inactive)	> 100 µM (inactive)	> 100 µM (inactive)	> 100 µM (inactive)	> 100 µM (inactive)	> 100 µM (inactive)		> 100 µM (inactive)	> 100 µM (inactive)	> 100 µM (inactive)		> 100 µM (inactive)	> 100 µM (inactive)	> 100 µM (inactive)	> 100 µM (inactive)	> 100 µM (inactive)
CC(C)(C)NCC(COc1ccc([N+](=O)[O-])cc1)OP(c1ccccc1)c1ccccc1 (stereo unspecified)	55 µM (inactive)		18.8 µM (inactive)	29 µM (inactive)	27.8 µM (inactive)	44.4 µM (inactive)	31.4 µM (inactive)	32.7 µM (inactive)	53.1 µM (inactive)	44.9 µM (inactive)		35.8 µM (inactive)	> 100 µM (inactive)	60.5 µM (inactive)		44.7 µM (inactive)	38.7 µM (inactive)	23.7 µM (inactive)	35.4 µM (inactive)	19.3 µM (inactive)
O=C(CC(=O)c1cccc2ccccc12)C(=O)Nc1nccs1	> 100 µM (inactive)		> 100 µM (inactive)	> 100 µM (inactive)	> 100 µM (inactive)	> 100 µM (inactive)	> 100 µM (inactive)	> 100 µM (inactive)	> 100 µM (inactive)	> 100 µM (inactive)		> 100 µM (inactive)	> 100 µM (inactive)	> 100 µM (inactive)		> 100 µM (inactive)	> 100 µM (inactive)	> 100 µM (inactive)	> 100 µM (inactive)	> 100 µM (inactive)
Cc1ccc(/N=N/c2c(C)nn(-c3ccccc3)c2-c2ccccc2)c(Br)c1	> 100 µM (inactive)			32.6 µM (inactive)	57.4 µM (inactive)	40 µM (inactive)		25.4 µM (inactive)	20.2 µM (inactive)			31.8 µM (inactive)	> 100 µM (inactive)	> 100 µM (inactive)		> 100 µM (inactive)	53.8 µM (inactive)	86.5 µM (inactive)	> 100 µM (inactive)	97.1 µM (inactive)
CC1C=CC(C)C2(O)C(=O)NC(O)C12 (stereo unspecified)	> 100 µM (inactive)		> 100 µM (inactive)	> 100 µM (inactive)	> 100 µM (inactive)	> 100 µM (inactive)	> 100 µM (inactive)	> 100 µM (inactive)	> 100 µM (inactive)			> 100 µM (inactive)	> 100 µM (inactive)	> 100 µM (inactive)		> 100 µM (inactive)	> 100 µM (inactive)		> 100 µM (inactive)	> 100 µM (inactive)
NC(N)=NN/C(=C1/N=c2ccc([N+](=O)[O-])cc2=NC1=O)C(O)c1ccco1 (stereo unspecified)	> 100 µM (inactive)		> 100 µM (inactive)	> 100 µM (inactive)	> 100 µM (inactive)	> 100 µM (inactive)	> 100 µM (inactive)	54.3 µM (inactive)	> 100 µM (inactive)	> 100 µM (inactive)		> 100 µM (inactive)	> 100 µM (inactive)	> 100 µM (inactive)		> 100 µM (inactive)	> 100 µM (inactive)	> 100 µM (inactive)	> 100 µM (inactive)	32.8 µM (inactive)
c1ccc2c(NCCCCCCNc3c4ccccc4nc4ccccc34)c3ccccc3nc2c1		0.632 µM (active)	1.4 µM (inactive)	0.232 µM (active)	0.291 µM (active)	0.695 µM (active)	0.235 µM (active)	0.0649 µM (active)	0.108 µM (active)	0.274 µM (active)	0.445 µM (active)	0.0631 µM (active)	0.206 µM (active)	1.01 µM (active)	0.288 µM (active)	1.25 µM (inactive)	0.23 µM (active)	0.281 µM (active)	1.26 µM (inactive)	0.0893 µM (active)
C[C@H](N)C(=O)N[C@@H]1[C@H]2C(=C(O)C[C@@H](O)[C@@H]2O)C(=O)O[C@]1(C)C(Cl)Cl [BACTOBOLIN]	0.234 µM (active)	0.182 µM (active)	0.129 µM (active)	0.0655 µM (active)	0.24 µM (active)	0.23 µM (active)	0.105 µM (active)		0.229 µM (active)	0.183 µM (active)	0.232 µM (active)	0.111 µM (active)	0.152 µM (active)	0.271 µM (active)	0.105 µM (active)	0.329 µM (active)	0.176 µM (active)	0.18 µM (active)	0.222 µM (active)	0.16 µM (active)
